Source: ChEMBL document CHEMBL1156950, “Synthesis and biological evaluation of 4-anilinoquinolines as potent inhibitors of epidermal growth factor receptor” (J Med Chem, 2010)
Active and inactive are the calls of the source. No cut-off for these calls is given here.

How the values were obtained:
[1] = biological target: Mitogen-activated protein kinase 8 (Homo sapiens) (UniProt P45983); experiment: Inhibition of JNK1 at 10 uM assessed as residual activity by [33P]ATP radioactive filter binding assay relative to control
Sequence of Mitogen-activated protein kinase 8 (Homo sapiens) (P45983 whole entry): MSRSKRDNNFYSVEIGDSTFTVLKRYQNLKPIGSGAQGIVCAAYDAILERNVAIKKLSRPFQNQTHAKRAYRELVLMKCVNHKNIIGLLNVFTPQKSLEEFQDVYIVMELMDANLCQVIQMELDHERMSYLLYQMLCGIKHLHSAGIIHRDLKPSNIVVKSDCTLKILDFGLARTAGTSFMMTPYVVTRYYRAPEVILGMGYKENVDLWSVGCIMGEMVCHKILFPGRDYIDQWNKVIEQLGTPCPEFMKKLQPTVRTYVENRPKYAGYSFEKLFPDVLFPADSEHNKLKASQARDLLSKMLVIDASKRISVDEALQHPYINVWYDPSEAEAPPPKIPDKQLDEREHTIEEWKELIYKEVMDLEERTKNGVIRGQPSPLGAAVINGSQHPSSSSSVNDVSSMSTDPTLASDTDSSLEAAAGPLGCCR

[2] = biological target: Serine/threonine-protein kinase Nek2 (Homo sapiens) (UniProt P51955); experiment: Inhibition of NEK2a at 10 uM assessed as residual activity by [33P]ATP radioactive filter binding assay relative to control
[3] = biological target: NUAK family SNF1-like kinase 1 (Homo sapiens) (UniProt O60285); experiment: Inhibition of NUAK1 at 10 uM assessed as residual activity by [33P]ATP radioactive filter binding assay relative to control
Sequence of NUAK family SNF1-like kinase 1 (Homo sapiens) (O60285 whole entry): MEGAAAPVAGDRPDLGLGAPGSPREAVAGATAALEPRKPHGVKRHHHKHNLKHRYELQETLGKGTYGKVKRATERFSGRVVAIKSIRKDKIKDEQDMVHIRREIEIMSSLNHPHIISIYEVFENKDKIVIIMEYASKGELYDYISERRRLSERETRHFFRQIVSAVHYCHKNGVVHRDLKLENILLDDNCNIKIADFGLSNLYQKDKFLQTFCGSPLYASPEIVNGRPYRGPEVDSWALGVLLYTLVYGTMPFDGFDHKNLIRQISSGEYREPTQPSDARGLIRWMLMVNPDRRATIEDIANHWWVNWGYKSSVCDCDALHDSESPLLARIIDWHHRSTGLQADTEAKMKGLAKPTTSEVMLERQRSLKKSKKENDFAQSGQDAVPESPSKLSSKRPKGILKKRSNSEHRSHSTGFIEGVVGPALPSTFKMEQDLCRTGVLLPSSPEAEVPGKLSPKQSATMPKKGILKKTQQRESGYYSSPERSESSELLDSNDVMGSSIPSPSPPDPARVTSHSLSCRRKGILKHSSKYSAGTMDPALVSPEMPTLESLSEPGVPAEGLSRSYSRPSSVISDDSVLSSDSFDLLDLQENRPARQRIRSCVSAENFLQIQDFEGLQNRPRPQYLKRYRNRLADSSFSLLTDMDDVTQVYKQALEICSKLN

[4] = Inhibition of CK2 at 10 uM assessed as residual activity by [33P]ATP radioactive filter binding assay relative to control
cells [5] = settings: Mus musculus, BaF3, 96 h
Description: Growth inhibition of mouse BA/F3 cells expressing EGFR Del3 mutant after 96 hrs by cell titer-glo assay

[6] = biological target: Serine/threonine-protein kinase PAK 4 (Homo sapiens) (UniProt O96013); experiment: Inhibition of PAK4 at 10 uM assessed as residual activity by [33P]ATP radioactive filter binding assay relative to control
Sequence of Serine/threonine-protein kinase PAK 4 (Homo sapiens) (O96013 whole entry, looked up): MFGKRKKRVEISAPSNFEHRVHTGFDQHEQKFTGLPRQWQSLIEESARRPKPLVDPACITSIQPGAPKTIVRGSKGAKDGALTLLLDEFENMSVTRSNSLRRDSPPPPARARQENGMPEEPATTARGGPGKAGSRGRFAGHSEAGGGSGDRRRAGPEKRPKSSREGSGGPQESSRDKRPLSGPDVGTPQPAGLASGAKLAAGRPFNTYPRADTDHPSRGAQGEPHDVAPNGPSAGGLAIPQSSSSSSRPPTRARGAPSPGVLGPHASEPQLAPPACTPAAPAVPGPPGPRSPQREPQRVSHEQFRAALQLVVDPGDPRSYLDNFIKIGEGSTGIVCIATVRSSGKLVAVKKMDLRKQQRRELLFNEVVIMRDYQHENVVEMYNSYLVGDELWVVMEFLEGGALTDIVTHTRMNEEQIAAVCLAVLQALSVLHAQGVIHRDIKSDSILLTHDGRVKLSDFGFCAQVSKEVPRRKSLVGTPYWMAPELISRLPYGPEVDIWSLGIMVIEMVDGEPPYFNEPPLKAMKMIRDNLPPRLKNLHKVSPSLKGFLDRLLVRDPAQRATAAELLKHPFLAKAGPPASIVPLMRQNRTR

cells [7] = settings: Mus musculus, BaF3, 96 h; remark: listed apart in the source
[8] = biological target: Proto-oncogene tyrosine-protein kinase Src (Homo sapiens) (UniProt P12931); experiment: Inhibition of Src at 10 uM assessed as residual activity by [33P]ATP radioactive filter binding assay relative to control
Sequence of Proto-oncogene tyrosine-protein kinase Src (Homo sapiens) (P12931 2-536 limits assumed): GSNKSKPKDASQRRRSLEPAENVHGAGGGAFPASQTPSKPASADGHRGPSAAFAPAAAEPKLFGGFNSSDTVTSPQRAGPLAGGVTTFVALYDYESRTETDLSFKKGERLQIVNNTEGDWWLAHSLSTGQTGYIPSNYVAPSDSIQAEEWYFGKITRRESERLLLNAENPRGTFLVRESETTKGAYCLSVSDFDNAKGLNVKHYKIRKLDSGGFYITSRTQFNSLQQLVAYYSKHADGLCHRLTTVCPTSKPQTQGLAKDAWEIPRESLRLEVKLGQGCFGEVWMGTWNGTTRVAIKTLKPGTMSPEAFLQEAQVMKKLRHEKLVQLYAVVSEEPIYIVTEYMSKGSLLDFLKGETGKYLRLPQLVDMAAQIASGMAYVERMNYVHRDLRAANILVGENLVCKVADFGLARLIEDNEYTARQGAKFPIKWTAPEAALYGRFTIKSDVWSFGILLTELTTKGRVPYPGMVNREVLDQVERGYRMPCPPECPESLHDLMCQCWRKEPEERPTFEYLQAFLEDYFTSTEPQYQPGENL

[9] = biological target: Serine/threonine-protein kinase N2 (Homo sapiens) (UniProt Q16513); experiment: Inhibition of PRK2 at 10 uM assessed as residual activity by [33P]ATP radioactive filter binding assay relative to control
[10] = biological target: Inhibitor of nuclear factor kappa-B kinase subunit beta (Homo sapiens) (UniProt O14920); experiment: Inhibition of IKK-beta at 10 uM assessed as residual activity by [33P]ATP radioactive filter binding assay relative to control
[11] = biological target: Dual specificity tyrosine-phosphorylation-regulated kinase 1A (Homo sapiens) (UniProt Q13627); experiment: Inhibition of DYRK1A at 10 uM assessed as residual activity by [33P]ATP radioactive filter binding assay relative to control
[12] = biological target: Serine/threonine-protein kinase pim-1 (Homo sapiens) (UniProt P11309); experiment: Inhibition of PIM1 at 10 uM assessed as residual activity by [33P]ATP radioactive filter binding assay relative to control
Sequence of Serine/threonine-protein kinase pim-1 (Homo sapiens) (P11309 whole entry, looked up): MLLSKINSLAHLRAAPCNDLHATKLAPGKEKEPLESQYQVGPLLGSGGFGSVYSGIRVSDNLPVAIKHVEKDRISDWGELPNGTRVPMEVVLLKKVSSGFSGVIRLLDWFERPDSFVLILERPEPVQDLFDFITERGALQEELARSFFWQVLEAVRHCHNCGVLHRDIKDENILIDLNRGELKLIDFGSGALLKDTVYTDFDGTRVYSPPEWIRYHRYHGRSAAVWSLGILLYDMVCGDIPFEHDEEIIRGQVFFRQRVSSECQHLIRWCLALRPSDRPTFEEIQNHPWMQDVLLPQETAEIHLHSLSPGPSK

[13] = biological target: Maternal embryonic leucine zipper kinase (Homo sapiens) (UniProt Q14680); experiment: Inhibition of MELK at 10 uM assessed as residual activity by [33P]ATP radioactive filter binding assay relative to control
[14] = biological target: Mitogen-activated protein kinase 10 (Homo sapiens) (UniProt P53779); experiment: Inhibition of JNK3 at 10 uM assessed as residual activity by [33P]ATP radioactive filter binding assay relative to control
[15] = biological target: Serine/threonine-protein kinase PAK 6 (Homo sapiens) (UniProt Q9NQU5); experiment: Inhibition of PAK6 at 10 uM assessed as residual activity by [33P]ATP radioactive filter binding assay relative to control
[16] = biological target: Casein kinase I isoform alpha (Homo sapiens) (UniProt P48729); experiment: Inhibition of CK1 at 10 uM assessed as residual activity by [33P]ATP radioactive filter binding assay relative to control
Sequence of Casein kinase I isoform alpha (Homo sapiens) (P48729 2-337 limits assumed): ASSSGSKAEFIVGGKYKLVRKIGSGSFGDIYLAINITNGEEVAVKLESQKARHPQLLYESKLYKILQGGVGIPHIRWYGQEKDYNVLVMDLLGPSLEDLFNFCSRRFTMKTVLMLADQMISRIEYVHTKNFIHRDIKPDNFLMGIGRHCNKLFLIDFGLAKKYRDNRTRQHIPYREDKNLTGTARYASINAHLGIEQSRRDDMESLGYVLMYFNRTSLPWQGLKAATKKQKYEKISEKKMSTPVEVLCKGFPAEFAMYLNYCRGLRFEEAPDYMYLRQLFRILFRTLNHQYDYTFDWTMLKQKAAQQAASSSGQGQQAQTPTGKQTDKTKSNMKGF

[17] = biological target: Mitogen-activated protein kinase 9 (Homo sapiens) (UniProt P45984); experiment: Inhibition of JNK2 at 10 uM assessed as residual activity by [33P]ATP radioactive filter binding assay relative to control
Sequence of Mitogen-activated protein kinase 9 (Homo sapiens) (P45984 whole entry, looked up): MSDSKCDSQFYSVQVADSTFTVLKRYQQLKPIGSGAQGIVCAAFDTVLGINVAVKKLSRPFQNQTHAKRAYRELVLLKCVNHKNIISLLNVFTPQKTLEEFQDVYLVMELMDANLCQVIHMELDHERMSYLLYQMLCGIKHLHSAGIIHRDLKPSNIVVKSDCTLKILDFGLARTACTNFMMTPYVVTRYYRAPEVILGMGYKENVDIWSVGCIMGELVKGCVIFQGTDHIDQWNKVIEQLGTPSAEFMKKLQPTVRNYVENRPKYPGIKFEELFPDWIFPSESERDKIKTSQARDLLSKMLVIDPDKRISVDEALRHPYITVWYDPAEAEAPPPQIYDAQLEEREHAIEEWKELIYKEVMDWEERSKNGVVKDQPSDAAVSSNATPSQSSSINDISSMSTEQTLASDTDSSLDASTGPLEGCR

[18] = biological target: Serine/threonine-protein kinase Nek6 (Homo sapiens) (UniProt Q9HC98); experiment: Inhibition of NEK6 at 10 uM assessed as residual activity by [33P]ATP radioactive filter binding assay relative to control
[19] = biological target: Ephrin type-B receptor 3 (Homo sapiens) (UniProt P54753); experiment: Inhibition of EPH-B3 at 10 uM assessed as residual activity by [33P]ATP radioactive filter binding assay relative to control
Sequence of Ephrin type-B receptor 3 (Homo sapiens) (P54753 whole entry): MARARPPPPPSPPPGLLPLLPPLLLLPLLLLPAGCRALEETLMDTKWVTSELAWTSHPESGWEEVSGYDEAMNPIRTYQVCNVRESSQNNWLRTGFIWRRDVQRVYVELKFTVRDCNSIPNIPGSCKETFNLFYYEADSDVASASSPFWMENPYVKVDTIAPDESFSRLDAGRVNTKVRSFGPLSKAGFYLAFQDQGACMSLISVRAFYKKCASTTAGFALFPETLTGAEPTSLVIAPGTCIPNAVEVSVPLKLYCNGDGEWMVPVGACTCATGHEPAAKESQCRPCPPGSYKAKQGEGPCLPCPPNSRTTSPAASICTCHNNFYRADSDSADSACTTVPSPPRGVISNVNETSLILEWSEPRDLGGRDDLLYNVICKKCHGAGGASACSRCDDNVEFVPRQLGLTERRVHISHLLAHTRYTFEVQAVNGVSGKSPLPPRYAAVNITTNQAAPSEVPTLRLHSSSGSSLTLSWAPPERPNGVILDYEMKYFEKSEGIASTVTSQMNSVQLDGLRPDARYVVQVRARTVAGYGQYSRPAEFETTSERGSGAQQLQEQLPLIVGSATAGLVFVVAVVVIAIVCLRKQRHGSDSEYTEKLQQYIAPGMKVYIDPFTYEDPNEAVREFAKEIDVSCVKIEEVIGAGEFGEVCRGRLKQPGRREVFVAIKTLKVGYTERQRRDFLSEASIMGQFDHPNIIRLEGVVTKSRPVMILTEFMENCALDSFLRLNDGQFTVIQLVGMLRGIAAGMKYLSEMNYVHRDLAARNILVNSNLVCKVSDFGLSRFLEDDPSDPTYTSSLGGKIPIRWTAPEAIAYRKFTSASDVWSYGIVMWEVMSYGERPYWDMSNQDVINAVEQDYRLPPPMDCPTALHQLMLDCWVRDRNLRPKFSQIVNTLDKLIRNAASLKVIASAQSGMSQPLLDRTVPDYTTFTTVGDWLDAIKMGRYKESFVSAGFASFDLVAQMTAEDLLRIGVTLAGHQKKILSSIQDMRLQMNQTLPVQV

[20] = biological target: Serine/threonine-protein kinase STK11 (Homo sapiens) (UniProt Q15831); experiment: Inhibition of LKB1 at 10 uM assessed as residual activity by [33P]ATP radioactive filter binding assay relative to control
[21] = biological target: Serine/threonine-protein kinase BRSK2 (Homo sapiens) (UniProt Q8IWQ3); experiment: Inhibition of BRSK2 at 10 uM assessed as residual activity by [33P]ATP radioactive filter binding assay relative to control
Sequence of Serine/threonine-protein kinase BRSK2 (Homo sapiens) (Q8IWQ3 whole entry): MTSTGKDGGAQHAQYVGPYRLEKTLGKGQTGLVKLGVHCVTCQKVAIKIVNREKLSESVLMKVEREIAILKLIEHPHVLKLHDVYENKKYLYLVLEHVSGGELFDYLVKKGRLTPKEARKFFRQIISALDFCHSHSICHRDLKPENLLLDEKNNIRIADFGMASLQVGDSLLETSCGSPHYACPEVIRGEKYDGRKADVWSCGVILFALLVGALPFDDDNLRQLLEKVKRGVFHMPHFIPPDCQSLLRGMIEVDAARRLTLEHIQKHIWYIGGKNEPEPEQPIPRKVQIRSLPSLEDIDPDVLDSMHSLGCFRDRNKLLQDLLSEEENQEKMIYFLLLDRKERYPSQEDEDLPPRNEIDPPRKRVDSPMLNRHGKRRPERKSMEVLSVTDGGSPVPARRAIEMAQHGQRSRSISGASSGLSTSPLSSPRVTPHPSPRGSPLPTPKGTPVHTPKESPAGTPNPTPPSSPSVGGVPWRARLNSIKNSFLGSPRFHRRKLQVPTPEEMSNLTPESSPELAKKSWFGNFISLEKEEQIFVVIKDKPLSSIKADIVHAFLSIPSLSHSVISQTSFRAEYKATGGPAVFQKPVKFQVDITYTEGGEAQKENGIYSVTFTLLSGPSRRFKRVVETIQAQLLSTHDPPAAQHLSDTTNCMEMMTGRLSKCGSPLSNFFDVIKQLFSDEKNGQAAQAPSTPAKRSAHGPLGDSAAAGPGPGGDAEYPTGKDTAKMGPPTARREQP

[22] = biological target: Ribosomal protein S6 kinase alpha-5 (Homo sapiens) (UniProt O75582); experiment: Inhibition of MSK1 at 10 uM assessed as residual activity by [33P]ATP radioactive filter binding assay relative to control
[23] = biological target: Mitogen-activated protein kinase kinase kinase 9 (Homo sapiens) (UniProt P80192); experiment: Inhibition of MLK1 at 10 uM assessed as residual activity by [33P]ATP radioactive filter binding assay relative to control
[24] = biological target: Tyrosine-protein kinase SYK (Homo sapiens) (UniProt P43405); experiment: Inhibition of SYK at 10 uM assessed as residual activity by [33P]ATP radioactive filter binding assay relative to control
[25] = biological target: Homeodomain-interacting protein kinase 2 (Homo sapiens) (UniProt Q9H2X6); experiment: Inhibition of HIPK2 at 10 uM assessed as residual activity by [33P]ATP radioactive filter binding assay relative to control
[26] = biological target: Insulin-like growth factor 1 receptor (Homo sapiens) (UniProt P08069); experiment: Inhibition of IGF-1R at 10 uM assessed as residual activity by [33P]ATP radioactive filter binding assay relative to control
[27] = biological target: Tyrosine-protein kinase BTK (Homo sapiens) (UniProt Q06187); experiment: Inhibition of BTK at 10 uM assessed as residual activity by [33P]ATP radioactive filter binding assay relative to control
[28] = biological target: Serine/threonine-protein kinase D1 (Homo sapiens) (UniProt Q15139); experiment: Inhibition of PKD1 at 10 uM assessed as residual activity by [33P]ATP radioactive filter binding assay relative to control
[29] = biological target: Calcium/calmodulin-dependent protein kinase kinase 2 (Homo sapiens) (UniProt Q96RR4); experiment: Inhibition of CAMKKbeta at 10 uM assessed as residual activity by [33P]ATP radioactive filter binding assay relative to control
[30] = biological target: Serine/threonine-protein kinase PAK 2 (Homo sapiens) (UniProt Q13177); experiment: Inhibition of PAK2 at 10 uM assessed as residual activity by [33P]ATP radioactive filter binding assay relative to control
PC-9 = experiment: Cytotoxicity against human PC9 cells expressing 746-750 sequence deleted EGFR assessed as cell viability at 0.001 to 10 uM after 96 hrs by cell titer-glo assay; format: functional, cell-based
[31] = biological target: Ribosomal protein S6 kinase beta-1 (Homo sapiens) (UniProt P23443); experiment: Inhibition of S6K1 at 10 uM assessed as residual activity by [33P]ATP radioactive filter binding assay relative to control

SMILES	Activity [1] [%]	Activity [2] [%]	Activity [3] [%]	Activity [4] [%]	GI50 (cells [5]) [nM]	Activity [6] [%]	GI50 (cells [7]) [nM]	Activity [8] [%]	Activity [9] [%]	Activity [10] [%]	Activity [11] [%]	Activity [12] [%]	Activity [13] [%]	Activity [14] [%]	Activity [15] [%]	Activity [16] [%]	Activity [17] [%]	Activity [18] [%]	Activity [19] [%]	Activity [20] [%]	also measured
CN(C)CCCC(=O)Nc1ccc2ncnc(Nc3cccc(Br)c3)c2c1	76	96	39	96	< 500	83	> 5000	44	37	90	65	12	49	72	93	66	77	77	17	103	Activity [21]: 29%; Activity [22]: 93%; Activity [23]: 87%; Activity [24]: 67%; Activity [25]: 97%; Activity [26]: 105%; Activity [27]: 79%; Activity [28]: 18%; Activity [29]: 66%
CN(C)CCCC(=O)Nc1ccc2nccc(Nc3cccc(Br)c3)c2c1	49	95	37	90	< 500	79	> 500	13	36	62	85	46	25	62	82	44	50	85	5	94	Activity [30]: 79%; Activity (PC-9): Active; Activity [31]: 87%; Activity [21]: 36%; Activity [22]: 96%; Activity [23]: 79%; Activity [24]: 57%; Activity [25]: 104%; Activity [26]: 71%; Activity [27]: 36%; Activity [28]: 14%; Activity [29]: 74%
